Source: ChEMBL document CHEMBL5096235, “In Silico Exploration and Biological Evaluation of Bispecific Peptides Derived from Anti-HER2 Antibodies and Peptide-Camptothecin Conjugates for HER2-Positive Breast Cancer” (J Med Chem, 2022)
One block for each compound: values may come before it. Active and inactive are the calls of the source. The rule behind the calls is not given here. Residues, ends and D or L forms follow the SMILES beside them.

How the values were obtained:
[1] = target: T1, Receptor tyrosine-protein kinase erbB-2 (Homo sapiens, UniProt P04626); assay: Binding affinity to recombinant HER2 (unknown origin) assessed as dissociation constant by SPR analysis
T1 sequence (P04626 whole entry): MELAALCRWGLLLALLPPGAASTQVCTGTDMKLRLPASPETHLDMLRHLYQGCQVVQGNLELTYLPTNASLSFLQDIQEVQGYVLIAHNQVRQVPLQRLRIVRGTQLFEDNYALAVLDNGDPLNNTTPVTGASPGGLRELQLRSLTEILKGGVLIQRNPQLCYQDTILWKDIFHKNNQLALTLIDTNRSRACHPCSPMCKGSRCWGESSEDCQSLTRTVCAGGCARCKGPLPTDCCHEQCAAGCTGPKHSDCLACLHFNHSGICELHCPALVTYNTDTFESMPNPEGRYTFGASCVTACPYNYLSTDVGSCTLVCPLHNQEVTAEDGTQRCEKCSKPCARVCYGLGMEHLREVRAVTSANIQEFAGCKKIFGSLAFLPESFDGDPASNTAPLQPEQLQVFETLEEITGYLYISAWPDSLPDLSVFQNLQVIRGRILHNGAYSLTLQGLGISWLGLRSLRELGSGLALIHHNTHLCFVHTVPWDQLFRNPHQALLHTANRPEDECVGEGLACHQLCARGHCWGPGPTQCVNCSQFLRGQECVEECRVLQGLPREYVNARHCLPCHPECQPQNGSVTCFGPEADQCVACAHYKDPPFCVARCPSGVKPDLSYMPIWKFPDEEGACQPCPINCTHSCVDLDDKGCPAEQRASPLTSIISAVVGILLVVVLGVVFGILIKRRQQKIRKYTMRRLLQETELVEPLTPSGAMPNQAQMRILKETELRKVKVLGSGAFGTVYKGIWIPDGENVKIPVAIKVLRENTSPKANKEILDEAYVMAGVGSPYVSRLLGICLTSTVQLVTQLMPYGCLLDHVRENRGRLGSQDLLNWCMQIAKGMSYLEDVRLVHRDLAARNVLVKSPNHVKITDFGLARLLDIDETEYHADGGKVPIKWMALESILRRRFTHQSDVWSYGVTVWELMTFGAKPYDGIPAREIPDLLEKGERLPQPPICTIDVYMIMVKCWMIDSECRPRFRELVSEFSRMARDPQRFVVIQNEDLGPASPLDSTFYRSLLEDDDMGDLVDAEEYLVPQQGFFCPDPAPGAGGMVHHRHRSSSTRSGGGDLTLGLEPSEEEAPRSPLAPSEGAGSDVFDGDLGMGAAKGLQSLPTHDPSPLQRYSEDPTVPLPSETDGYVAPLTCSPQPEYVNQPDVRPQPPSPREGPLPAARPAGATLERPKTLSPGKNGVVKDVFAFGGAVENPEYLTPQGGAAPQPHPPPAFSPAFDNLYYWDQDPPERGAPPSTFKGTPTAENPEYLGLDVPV

[2] = Metabolic stability in Sprague-Dawley rat plasma assessed as drug degradation incubated for 120 mins by LC-MS/MS analysis; format: ADME, cell-free; details: 2 h
[3] = Metabolic stability in Sprague-Dawley rat plasma assessed as half life incubated for 120 mins by LC-MS/MS analysis; format: ADME, cell-free
[4] = target: T1, Receptor tyrosine-protein kinase erbB-2; assay: Binding affinity to HER2 in HER-positive human SK-BR-3 cells assessed as increase in fluorescence intensity at 25 uM by Hoechst 33342 staining based confocal microscopic analysis; format: cell-based
[5] = Drug uptake in tumor of nude mouse xenografted with HER2-positive human SK-BR-3 cells assessed as increase in fluorescence intensity at 25 uM, iv measured after 2 hrs by IVIS spectrum in vivo imaging analysis; format: ADME, organism-based, Neoplasm
SK-BR-3 [6] = assay: Cytotoxicity against HER-positive human SK-BR-3 cells assessed as inhibition of cell growth incubated for 48 hrs by MTT assay; format: functional, cell-based; details: SK-BR-3, 48 h
NCI-N87 = assay: Cytotoxicity against HER-positive human NCI-N87 cells assessed as inhibition of cell growth incubated for 48 hrs by MTT assay; format: functional, cell-based; details: NCI-N87, 48 h
SK-OV-3 = assay: Cytotoxicity against HER-positive human SK-OV-3 cells assessed as inhibition of cell growth incubated for 48 hrs by MTT assay; format: functional, cell-based; details: SK-OV-3, 48 h
MDA-MB-231 = assay: Cytotoxicity against HER-negative human MDA-MB-231 cells assessed as inhibition of cell growth incubated for 48 hrs by MTT assay; format: functional, cell-based; details: MDA-MB-231, 48 h
[7] = Cytotoxicity against human MCF-10A cells assessed as inhibition of cell growth incubated for 48 hrs by MTT assay; format: toxicity, cell-based
SK-BR-3 [8] = assay: Induction of apoptosis in human SK-BR-3 cells assessed as live cells incubated for 24 hrs by Annexin V-FITC/PI staining based flow cytometry analysis (Rvb= 89.4%); format: functional
SK-BR-3 [9] = assay: Induction of apoptosis in human SK-BR-3 cells assessed as early apoptotic cells incubated for 24 hrs by Annexin V-FITC/PI staining based flow cytometry analysis (Rvb= 4.37%); format: functional
SK-BR-3 [10] = assay: Induction of apoptosis in human SK-BR-3 cells assessed as late apoptotic cells incubated for 24 hrs by Annexin V-FITC/PI staining based flow cytometry analysis (Rvb= 5.02%); format: functional
SK-BR-3 [11] = assay: Induction of apoptosis in human SK-BR-3 cells assessed as dead cells incubated for 24 hrs by Annexin V-FITC/PI staining based flow cytometry analysis (Rvb= 1.21%); format: functional
SK-BR-3 [12] = assay: Induction of cell cycle arrest in human SK-BR-3 cells assessed as accumulation of cells at S phase incubated for 24 hrs by flow cytometry analysis (reference value: 23%); format: functional
[13] = Toxicity in nude mouse xenografted with human SK-BR-3 cells assessed as effect on alkaline phosphatase level at 8 micromol/kg, iv administered every 3 days for 14 days; format: organism-based; details: in vivo, 336 h, dose 8 µmol/kg, time 14 day
[14] = Toxicity in nude mouse xenografted with human SK-BR-3 cells assessed as effect on total protein level at 8 micromol/kg, iv administered every 3 days for 14 days; format: organism-based; details: in vivo, 336 h, dose 8 µmol/kg, time 14 day
[15] = Toxicity in nude mouse xenografted with human SK-BR-3 cells assessed as effect on albumin level at 8 micromol/kg, iv administered every 3 days for 14 days; format: organism-based; details: in vivo, 336 h, dose 8 µmol/kg, time 14 day
[16] = Toxicity in nude mouse xenografted with human SK-BR-3 cells assessed as effect on globulin level at 8 micromol/kg, iv administered every 3 days for 14 days; format: organism-based; details: in vivo, 336 h, dose 8 µmol/kg, time 14 day
[17] = Toxicity in nude mouse xenografted with human SK-BR-3 cells assessed as effect on creatinine level at 8 micromol/kg, iv administered every 3 days for 14 days; format: organism-based; details: in vivo, 336 h, dose 8 µmol/kg, time 14 day
[18] = Toxicity in nude mouse xenografted with human SK-BR-3 cells assessed as heart damage at 8 micromol/kg, iv administered every 3 days for 14 days by H and E staining based analysis; format: organism-based; details: in vivo, 336 h, dose 8 µmol/kg, time 14 day
[19] = Toxicity in nude mouse xenografted with human SK-BR-3 cells assessed as liver damage at 8 micromol/kg, iv administered every 3 days for 14 days by H and E staining based analysis; format: organism-based; details: in vivo, 336 h, dose 8 µmol/kg, time 14 day
[20] = Toxicity in nude mouse xenografted with human SK-BR-3 cells assessed as spleen damage at 8 micromol/kg, iv administered every 3 days for 14 days by H and E staining based analysis; format: organism-based; details: in vivo, 336 h, dose 8 µmol/kg, time 14 day
[21] = Toxicity in nude mouse xenografted with human SK-BR-3 cells assessed as lung damage at 8 micromol/kg, iv administered every 3 days for 14 days by H and E staining based analysis; format: organism-based; details: in vivo, 336 h, dose 8 µmol/kg, time 14 day
[22] = Toxicity in nude mouse xenografted with human SK-BR-3 cells assessed as kidney damage at 8 micromol/kg, iv administered every 3 days for 14 days by H and E staining based analysis; format: organism-based; details: in vivo, 336 h, dose 8 µmol/kg, time 14 day
[23] = Toxicity in nude mouse xenografted with human SK-BR-3 cells assessed as cellular necrosis at 8 micromol/kg, iv administered every 3 days for 14 days by H and E staining based analysis; format: organism-based; details: in vivo, 336 h, dose 8 µmol/kg, time 14 day
[24] = Toxicity in nude mouse xenografted with human SK-BR-3 cells assessed as inflammatory cell infiltration at 8 micromol/kg, iv administered every 3 days for 14 days by H and E staining based analysis; format: organism-based; details: in vivo, 336 h, dose 8 µmol/kg, time 14 day

- Kd [1]: 151 nM
- Stability [2]: Unstable
- half-life [3]: 15 min
SMILES: CC[C@H](C)[C@H](NC(=O)[C@H](CCCNC(=N)N)NC(=O)CNC(=O)[C@H](CS)NC(=O)CNC(=O)[C@H](CCCCN)NC(=O)[C@H](Cc1ccccc1)NC(=O)[C@H](CCCNC(=N)N)NC(=O)[C@H](CCC(N)=O)NC(=O)[C@H](CC(N)=O)NC(=O)[C@H](Cc1ccc(O)cc1)NC(=O)[C@H](Cc1c[nH]c2ccccc12)NC(=O)[C@H](CO)NC(=O)[C@H](CCCNC(=N)N)NC(=O)CNC(=O)[C@H](Cc1c[nH]c2ccccc12)NC(=O)[C@H](CC(N)=O)NC(=O)[C@@H]1CCCN1C(=O)[C@@H](N)CC(N)=O)C(=O)N[C@@H](CCCCN)C(=O)N1CCC[C@H]1C(=O)N[C@@H](CCCNC(=N)N)C(=O)N[C@@H](CCCCN)C(=O)NCC(=O)N[C@@H](Cc1ccc(O)cc1)C(=O)N[C@H](C(=O)N[C@@H](CCCNC(=N)N)C(=O)O)[C@@H](C)O (H-NPNWGRSWYNQRFKGCGRIKPRKGYTR-OH)

- Activity [4]: Active
- Drug uptake [5]: Active
SMILES: CC[C@H](C)[C@H](NC(=O)[C@H](CCCNC(=N)N)NC(=O)CNC(=O)[C@H](CS)NC(=O)CNC(=O)[C@H](CCCCN)NC(=O)[C@H](Cc1ccccc1)NC(=O)[C@H](CCCNC(=N)N)NC(=O)[C@H](CCC(N)=O)NC(=O)[C@H](CC(N)=O)NC(=O)[C@H](Cc1ccc(O)cc1)NC(=O)[C@H](Cc1c[nH]c2ccccc12)NC(=O)[C@H](CO)NC(=O)[C@H](CCCNC(=N)N)NC(=O)CNC(=O)[C@H](Cc1c[nH]c2ccccc12)NC(=O)[C@H](CC(N)=O)NC(=O)[C@@H]1CCCN1C(=O)[C@@H](N)CC(=O)NC(=S)Nc1ccc2c(c1)C(=O)OC21c2ccc(O)cc2Oc2cc(O)ccc21)C(=O)N[C@@H](CCCCN)C(=O)N1CCC[C@H]1C(=O)N[C@@H](CCCNC(=N)N)C(=O)N[C@@H](CCCCN)C(=O)NCC(=O)N[C@@H](Cc1ccc(O)cc1)C(=O)N[C@H](C(=O)N[C@@H](CCCNC(=N)N)C(=O)O)[C@@H](C)O (HELM PEPTIDE1{D.P.N.W.G.R.S.W.Y.N.Q.R.F.K.G.C.G.R.I.K.P.R.K.G.Y.T.R}|CHEM1{[O=C1OC2(c3ccc(O)cc3Oc3cc(O)ccc32)c2ccc(NC(=S)N[*:1])cc21]}$PEPTIDE1,CHEM1,1:R3-1:R1$$$V2.0)

SMILES: CC[C@@]1(O)C(=O)OCc2c1cc1n(c2=O)Cc2cc3ccccc3nc2-1 [CAMPTOTHECIN]
- IC50 (SK-BR-3 [6]): 210 nM
- IC50 (NCI-N87): 2320 nM
- IC50 (SK-OV-3): 3820 nM
- IC50 (MDA-MB-231): 1060 nM
- IC50 at 48 h [7]: 2580 nM
- Activity (SK-BR-3 [8]): 48.8%
- Activity (SK-BR-3 [9]): 38.6%
- Activity (SK-BR-3 [10]): 12.3%
- Activity (SK-BR-3 [11]): 0.35%
- Activity (SK-BR-3 [12]): 50.8%
- Activity [13]: Non-Toxic
- Activity [14]: Non-Toxic
- Activity [15]: Non-Toxic
- Activity [16]: Non-Toxic
- Activity [17]: Non-Toxic
- Activity [18]: Non-Toxic
- Activity [19]: Non-Toxic
- Activity [20]: Non-Toxic
- Activity [21]: Non-Toxic
- Activity [22]: Non-Toxic
- Activity [23]: Non-Toxic
- Activity [24]: Non-Toxic

- Drug uptake [5]: Active
SMILES: CC[C@H](C)[C@H](NC(=O)[C@H](CCCNC(=N)N)NC(=O)CNC(=O)[C@H](CS)NC(=O)CNC(=O)[C@H](CCCCN)NC(=O)[C@H](Cc1ccccc1)NC(=O)[C@H](CCCNC(=N)N)NC(=O)[C@H](CCC(N)=O)NC(=O)[C@H](CC(N)=O)NC(=O)[C@H](Cc1ccc(O)cc1)NC(=O)[C@H](Cc1c[nH]c2ccccc12)NC(=O)[C@H](CO)NC(=O)[C@H](CCCNC(=N)N)NC(=O)CNC(=O)[C@H](Cc1c[nH]c2ccccc12)NC(=O)[C@H](CC(N)=O)NC(=O)[C@@H]1CCCN1C(=O)[C@@H](N)CC(=O)NC(=S)Nc1ccc2c(c1)C(=O)OC21c2ccc(O)cc2Oc2cc(O)ccc21)C(=O)N[C@@H](CCCCN)C(=O)N1CCC[C@H]1C(=O)N[C@@H](CCCNC(=N)N)C(=O)N[C@@H](CCCCN)C(=O)NCC(=O)N[C@@H](Cc1ccc(O)cc1)C(=O)N[C@H](C(=O)N[C@@H](CCCNC(=N)N)C(N)=O)[C@@H](C)O
